Assay results: US20250140406A1, “CLASSIFYING TUMORS AND PREDICTING RESPONSIVENESS” (Oncocyte Corporation, priority 2022, published 2025)

Experiments:
[1] = tested on: cancer cell lines classified IM, MSL, M; assay: PRISM screen compound sensitivity correlated with IM, MSL and M subtype of cell lines (101 gene signature); assay type: cell-based; details: for IM Corr test: correlation of PRISM compound sensitivity with IM subtype correlation; for M Corr test: correlation of PRISM compound sensitivity with M subtype correlation; for MSL Corr test: correlation of PRISM compound sensitivity with MSL subtype correlation; for TNBCType train: 101 gene signature
[2] = tested on: cancer cell lines, DetermaIO classes; assay: Association of PRISM compound sensitivity with DetermaIO (DTIO) cell line classes; assay type: cell-based
[3] = subtype (IM, MSL or M) assigned to the compound by negative correlation of PRISM sensitivity with subtype, training cell set (371 cell lines)
[4] = correlation of PRISM compound sensitivity with DTIO (DetermaIO), test cell set (188 cell lines)
[5] = correlation of PRISM compound sensitivity with DTIO (DetermaIO), training cell set (371 cell lines)
[6] = correlation of PRISM compound sensitivity with DTIO, test cell set
[7] = correlation of PRISM compound sensitivity with DTIO, training cell set
[8] = subtype (IM, MSL or M) with which PRISM compound sensitivity is negatively correlated, training cell set
[9] = association of compound sensitivity with DetermaIO classes, test data set
[10] = association of compound sensitivity with DetermaIO classes, training data set
[11] = subtype (IM, MSL or M) with which compound sensitivity is negatively correlated, training cell set (371 cell lines)

Compound | DTIO Corr test [2, 9] | DTIO Corr train [2, 10] | further results
c1ccc2sc(N3CCN(Cc4ccc5c(c4)OCO5)CC3)nc2c1 | – | – | IM Corr test ([1]; test cell set (188 cell lines)): 0.03417; M Corr test ([1]; test cell set (188 cell lines)): −0.06017; MSL Corr test ([1]; test cell set (188 cell lines)): −0.05087; TNBCType train [1, 3]: MSL; DTIO Corr test [2, 4]: 0.0115; DTIO Corr train [2, 5]: 0.00776
CCCCC/C=C\C=C\CCCCCCCCC(=O)O | – | – | IM Corr test ([1]; test cell set): −0.1138; M Corr test ([1]; test cell set): 0.05243; MSL Corr test ([1]; test cell set): 0.00293; DTIO Corr test [2, 6]: −0.07628; DTIO Corr train [2, 7]: −0.1009
CN(N=O)C(=O)N[C@H]1C(O)O[C@H](CO)[C@@H](O)[C@@H]1O (mixture of isomers) [streptozotocin] | – | – | IM Corr test ([1]; test cell set): −0.07058; M Corr test ([1]; test cell set): 0.07616; MSL Corr test ([1]; test cell set): −0.07788; TNBCType train [1, 8]: MSL; DTIO Corr test [2, 6]: −0.06131; DTIO Corr train [2, 7]: 0.03601
CCNCCCNCCCCNCCCNCC [1,12-Besm] | – | – | IM Corr test ([1]; test cell set (188 cell lines)): −0.00575; M Corr test ([1]; test cell set (188 cell lines)): −0.0837; MSL Corr test ([1]; test cell set (188 cell lines)): −0.1322; DTIO Corr test [2, 6]: 0.02016; DTIO Corr train [2, 7]: 0.07515
C[C@@]1(O)[C@H](O)[C@@H](CO)O[C@H]1n1cnc2c(NC3CCCC3)nc(Cl)nc21 [2′-MeCCPA] | – | – | IM Corr test ([1]; test cell set (188 cell lines)): −0.06271; M Corr test ([1]; test cell set (188 cell lines)): 0.03452; MSL Corr test ([1]; test cell set (188 cell lines)): −0.04413; TNBCType train [1, 3]: MSL; DTIO Corr test [2, 4]: −0.0753; DTIO Corr train [2, 5]: −0.01341
COc1ccc(C2=N[C@@H](c3ccc(Cl)cc3)[C@@H](c3ccc(Cl)cc3)N2C(=O)N2CCNC(=O)C2)c(OC(C)C)c1 [A12230535] | 0.1503 | 0.1606 | –
Cc1nccn1CC1CCc2c(c3ccccc3n2C)C1=O (stereo not shown) [A19736161] | −0.1124 | −0.07634 | –
COC(=O)N[C@@H](C)CNc1nccc(-c2cn(C(C)C)nc2-c2cc(Cl)cc(NS(C)(=O)=O)c2F)n1 [A56085258] | 0.1442 | 0.09535 | –
Cc1ccc(NC(=O)c2ccc(CN3CC[C@H](N(C)C)C3)c(C(F)(F)F)c2)cc1Nc1nccc(-c2cncnc2)n1 [A75975749] | 0.1658 | 0.1191 | –
O=C(c1cc(Cc2n[nH]c(=O)c3ccccc23)ccc1F)N1CCN(C(=O)C2CC2)CC1 [K02113016] | 0.06404 | 0.02661 | –
Cc1cc(CN2CCN(c3c(Br)cnc4nc(-c5ccc(N6CCN(C)CC6)cc5)[nH]c34)CC2)no1 [K03289018] | −0.1396 | −0.02552 | –
Cc1ccc(NC(=O)c2cccc(C(C)(C)C#N)c2)cc1Nc1ccc2ncn(C)c(=O)c2c1 [K05804044] | 0.3247 | 0.1908 | –
CC(C)(C)c1nc(-c2cccc(NS(=O)(=O)c3c(F)cccc3F)c2F)c(-c2ccnc(N)n2)s1 [K09951645] | 0.1439 | 0.04313 | –
Cc1cc(C2CCCCC2)n(O)c(=O)c1 [K13044802] | −0.06749 | −0.1574 | –
O=Nc1ccc(O)c2ncccc12 [K13169950] | −0.00012 | 0.09356 | –
N=C(N)c1ccc(OCCCCCOc2ccc(C(=N)N)cc2)cc1 [K13183738] | 0.14 | 0.2157 | –
Cc1occc(=O)c1[O-].Cc1occc(=O)c1[O-].[O]=[V+2] [K16180792] | 0.09031 | 0.1485 | –
CS(=O)(=O)CCNCc1ccc(-c2ccc3ncnc(Nc4ccc(OCc5cccc(F)c5)c(Cl)c4)c3c2)o1 [K19687926] | −0.0302 | −0.08369 | –
COc1cc2nc(N3CCCN(C)CC3)nc(NC3CCN(Cc4ccccc4)CC3)c2cc1OC [K26818574] | 0.2463 | 0.08377 | –
CNC(=O)c1ccccc1Sc1ccc2c(/C=C/c3ccccn3)n[nH]c2c1 [K29905972] | 0.004812 | 0.0816 | –
N#Cc1c(Oc2ccc(F)c(NC(=O)Cc3cccc(C(F)(F)F)c3)c2)ccc2nc(NC(=O)C3CC3)sc12 [K31866293] | 0.2089 | 0.08489 | –
C=CC(=O)Nc1cc(Nc2nccc(-c3cn(C)c4ccccc34)n2)c(OC)cc1N(C)CCN(C)C [K42805893] | 0.0753 | −0.06781 | –

Compound | DTIO Corr test [2, 9] | DTIO Corr train [2, 10] | further results
C[C@@H]1COC(Nc2ccc3ncnc(Nc4ccc(OCc5nccs5)c(Cl)c4)c3c2)=N1 [K46386702] | −0.03109 | −0.05992 | –
COc1cc2nccc(Oc3ccc(NC(=O)Nc4ccc(F)cc4F)c(F)c3)c2cc1OC [K47150025] | 0.03732 | 0.02512 | –
NC(=O)c1cccc2cn(-c3ccc([C@@H]4CCCNC4)cc3)nc12 [K54955827] | −0.03477 | 0.03577 | –
COc1cc(N2CCC(N3CCN(C)CC3)CC2)ccc1Nc1ncc(Cl)c(Nc2ccccc2P(C)(C)=O)n1 [K56981171] | 0.04024 | −0.1728 | –
OCCn1cc(-c2ccc3c(c2)CC/C3=N\O)c(-c2ccncc2)n1 [K67578145] | 0.1581 | 0.1101 | –
O=c1cc(-c2ccccc2)oc2cc(O)c(O)c(O)c12 [K72327355] | −0.04244 | −0.1442 | –
Nc1nccc2c1ncn2C1C=C(CO)C(O)C1O (stereo not shown) [K77791657] | −0.05245 | −0.1309 | –
CC[C@@]1(O)C(=O)OCc2c1cc1n(c2=O)Cc2cc3c([N+](=O)[O-])cccc3nc2-1 [K79821389] | −0.06417 | −0.1178 | –
C=C1/C(=C\C=C2/CCC[C@]3(C)[C@@H]([C@H](C)OCCC(C)(C)O)CC[C@@H]23)C[C@@H](O)C[C@@H]1O [K81332461] | −0.00506 | −0.07504 | –
Cn1c(Nc2ccc(C(F)(F)F)cc2)nc2cc(Oc3ccnc(-c4ncc(C(F)(F)F)[nH]4)c3)ccc21 [K93123848] | 0.1916 | 0.1011 | –
O=C1[C@H](Cc2ccc(O)cc2)N2C(=O)CCN(C(=O)NCc3ccccc3)[C@H]2CN1Cc1cccc2ccccc12 [K94455792] | 0.1635 | 0.1783 | –
O=C(Cn1c(=O)sc2ccc(Cl)cc21)N1CCN(CCO)CC1 [tiaramide] | – | – | TNBCType train [1, 8]: MSL
CCCSc1nc(N[C@@H]2C[C@H]2c2ccc(F)c(F)c2)c2nnn([C@@H]3C[C@H](OCCO)[C@@H](O)[C@H]3O)c2n1 [ticagrelor] | – | – | TNBCType train [1, 8]: MSL
N#Cc1cc(-c2n[nH]c(-c3ccncc3)n2)ccn1 [topiroxostat] | – | – | TNBCType train [1, 3]: MSL
C[C@]12CC[C@H]3[C@@H](CC[C@@]45O[C@@H]4C(O)=C(C#N)C[C@]35C)[C@@H]1CC[C@@H]2O [trilostane] | – | – | TNBCType train [1, 11]: MSL
COc1cc2c3cc1Oc1cc(ccc1O)C[C@@H]1c4c(cc(OC)c(O)c4Oc4ccc(cc4)C[C@@H]3N(C)CC2)CC[N+]1(C)C [tubocurarine] | – | – | TNBCType train ([1]; subtype (IM, MSL or M) the PRISM compound sensitivity is associated with, training cell set (371 cell lines)): MSL
CC(C)(C)c1ccc(S(=O)(=O)Nc2ccc(Cl)cc2C(=O)c2cc[n+]([O-])cc2)cc1 [vercirnon] | – | – | TNBCType train [1, 8]: MSL
COc1ccc(N(C)c2nc(C)nc3ccccc23)cc1 [verubulin] | – | – | TNBCType train [1, 8]: MSL
CC[C@]1(O)C[C@@H]2CN(CCc3c([nH]c4ccccc34)[C@@](C(=O)OC)(c3cc4c(cc3OC)N(C)[C@H]3[C@@](O)(C(=O)OC)[C@H](OC(C)=O)[C@]5(CC)C=CCN6CC[C@]43[C@@H]65)C2)C1 [vinblastine] | – | – | TNBCType train [1, 11]: MSL
CC[C@]1(O)C[C@@H]2CN(CCc3c([nH]c4ccccc34)[C@@](C(=O)OC)(c3cc4c(cc3OC)N(C)[C@H]3[C@@](O)(C(N)=O)[C@H](O)[C@]5(CC)C=CCN6CC[C@]43[C@@H]65)C2)C1 [vindesine] | – | – | TNBCType train [1, 3]: MSL
CC(c1cc2ccccc2s1)N(O)C(N)=O (stereo not shown) [zileuton] | – | – | TNBCType train [1, 11]: MSL
